Laboratory results as given in patent US8859728B2, “Peptides that target dorsal root ganglion neurons” (Baylor College of Medicine, priority 2008, dated 2014).
Where no end group is shown, it is not given here.

Tests used:
DRG neurons = assay: In vivo binding of GST-peptide-fusion proteins to DRG neurons after subarachnoid injection; set-up: species or system mouse; details: L5 DRG; for NF-L-positive neurons positive for GST fusion protein: 5 μg into subarachnoid space, C57BL/6 mice, 1 h; for mean diameter of cells positive for GST fusion protein: in vivo, mean±SD
Source text: To evaluate their binding to DRG cells in vivo, GST fusion proteins of three selected peptides were synthesized using the pGEX4T-1 vector kit (Amersham, Piscataway, N.J.) according to the manufacturer's instructions. Briefly, oligonucleotides for C-DRG1-C, C-DRG2-C, and C-DRG3-C were synthesized cloned into the pGEX4T-1 vector, and transformed in E. coli. The synthesized GST-fusion proteins were pull down by Glutathione Sepharose 4B (Amersham), and purified. The purities and reactions to anti-GST antibodies (Amersham) were confirmed by gel-electrophoresis stained by Coomassie Blue and anti-GST immunoblotting.
Under intraperitoneal pentobarbiturate anesthesia (0.1 mg/g BW), 10 μl (500 μg/ml) of purified GST-fusion proteins (GST-DRG1, GST-DRG2, GST-DRG3, or GST alone) were injected into the subarachnoid space of 8-week-old female C57BL/6 mice (n=3 each). After 1 h, the mice were sacrificed and transcardially perfused with cold saline followed by 4% paraformaldehyde, 0.5% glutaraldehyde and 0.3% picric acid in 0.1 M PBS (pH 7.4). The L5 DRGs were then isolated and cut sectioned (10 μm) for fluorescence immunohistochemistry. After blocking with 10% horse serum, the sections were incubated overnight at 4° C. with goat anti-GST antibody (Amersham) diluted 1:1000 and rabbit anti-neurofilament L (NF-L, non-phosphorylated form, Chemicon, Temecula, Calif.) antibody diluted 1:100 in PBST. The sections were incubated for 1 h with Alexa Fluor 488-labeled anti-goat IgG and Alexa Fluor 555-labeled anti-rabbit IgG (Molecular Probes, Eugene, Oreg.) at room temperature, mounted with VECTASHIELD mounting medium containing 4′,6-diamidino-2-phenylindole (DAPI) (Vector Laboratories Inc., Burlingame, Calif.), and observed under a fluorescence microscope (Axioplan 2 imaging and Axiocam, Carl Zeiss, Jena, Germany). For quantitative analysis, the inventors took pictures of randomly selected fields and measured diameters (long and short) of the cells positive for GST, NF-L and DAPI. The mean cell size was calculated as the mean of the long and short diameters, and cell-size differences were evaluated in the three different groups.

isolated DRG neurons = assay: Double staining of isolated DRG neurons after incubation with DRG-p1 and GST-DRG3; type: cell-based, mouse; details: antibodies against phage and GST
Source text: The Ph.D.-C7C Phage display Peptide Library kit expresses random 7-amino acid peptides fused to the minor coat protein (pIII) of the M13 phage. By sequence analysis, only 113 phage plaques were represented in the bound peptide, consistent with a very efficient selection process (Table 2). The final binding studies allowed identification of three phages (DRG1, DRG2, or DRG3) that occurred repeatedly. In specific embodiments of the invention, the efficient identification of these clones was the result of multiple rounds of positive and negative selection using the biopanning protocol (Liang et al., 2006), although in specific cases some of the other 84 clones (Table 2) are true DRG-binding peptide-phages. […] Moreover, the size specificity of target neurons for individual peptides was confirmed by in vivo binding experiments: GST-DRG1 and GST-DRG3 recognized small-sized neurons, and GST-DRG2 recognized large-sized neurons. Since both DRG1 and DRG3 recognized small sized neurons, two peptide ligands might bind to the same cell populations. Therefore, double staining was performed of isolated DRG neurons after the incubation with DRG-p1 and GST-DRG3 by antibodies against phage and GST, respectively. Double positive staining was obtained in 51% of DRG-p1-positive neurons, and was in 71% of GST-DRG3-positive neurons, respectively. […]

Substance: GST-DRG1: GST fusion protein of peptide C-DRG1-C made with pGEX4T-1 in E. coli (CSPGARAFC; cysteine pairing not given here; also: GST fusion protein, GST not in chain)
- NF-L-positive neurons positive for GST fusion protein (DRG neurons): 39%
- mean diameter of cells positive for GST fusion protein (DRG neurons): 21.6±5.2 μm

Substance: GST-DRG2: GST fusion protein of peptide C-DRG2-C made with pGEX4T-1 in E. coli (CDGPWRKMC; cysteine pairing not given here; also: GST fusion protein, GST not in chain)
- NF-L-positive neurons positive for GST fusion protein (DRG neurons): 25%
- mean diameter of cells positive for GST fusion protein (DRG neurons): 33.5±7.4 μm

Substance: GST-DRG3: GST fusion protein of peptide C-DRG3-C made with pGEX4T-1 in E. coli (CFGQKASSC; cysteine pairing not given here; also: GST fusion protein, GST not in chain)
- double positive staining (DRG-p1 and GST-DRG3) as share of neurons positive for the named ligand (isolated DRG neurons): 71%
- NF-L-positive neurons positive for GST fusion protein (DRG neurons): 14%
- mean diameter of cells positive for GST fusion protein (DRG neurons): 22.7±6.6 μm
